According to PMC4892293 (Drug Design, Development and Therapy, 2016):

Target: T1, human recombinant PPARγ (Homo sapiens, UniProt P37231)
T1 sequence (P37231 1-505): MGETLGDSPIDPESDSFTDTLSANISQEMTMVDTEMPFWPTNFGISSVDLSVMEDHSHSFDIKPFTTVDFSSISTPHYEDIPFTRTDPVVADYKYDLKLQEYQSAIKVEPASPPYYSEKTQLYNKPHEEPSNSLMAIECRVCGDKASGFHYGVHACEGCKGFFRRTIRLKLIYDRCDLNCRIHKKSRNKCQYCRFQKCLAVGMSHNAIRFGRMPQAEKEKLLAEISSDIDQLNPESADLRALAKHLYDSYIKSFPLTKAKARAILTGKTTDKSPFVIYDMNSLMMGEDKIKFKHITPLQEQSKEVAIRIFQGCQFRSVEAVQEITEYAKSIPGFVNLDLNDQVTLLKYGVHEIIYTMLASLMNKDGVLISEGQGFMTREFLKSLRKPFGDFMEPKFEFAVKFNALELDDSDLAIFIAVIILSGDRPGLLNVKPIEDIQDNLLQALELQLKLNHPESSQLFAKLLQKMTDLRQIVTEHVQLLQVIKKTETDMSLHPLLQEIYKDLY
Assay: FP-based PPARγ ligand screening assay
Assay type: binding
Details: concentration of 10.0 μM; Figure 2

- agonistic activity in primary FP screening: unable to promote agonistic activity
Substance: 4-((5-(4-Chlorophenyl)-4-methylthiazol-2-yl)amino)-4-oxobutanoic acid [Compound 4f]
